IC50 data for 21 compounds are collected here from patent US10717733B2, “Haloallylamine indole and azaindole derivative inhibitors of lysyl oxidases and uses thereof” (PHARMAXIS LTD., priority 2016, dated 2020).

What all share (format): biochemical
The target of one experiment is Bovine LOX (Bos taurus (Bovine), UniProt P33072). The experiment in a line: LOX inhibition, peroxidase-coupled Amplex Red amine oxidase assay. The settings on record: 30 min preincubation at 37° C., putrescine substrate. The procedure, abridged:
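Bovine LOX in 1.2 M urea, 50 mM sodium borate pH 8.2 with 1 μM mofegiline and 0.5 mM pargyline; putrescine at twice KM (e.g. 20 mM for LOX) with Amplex Red/HRP. Fluorescence (ex 565/em 590 nm) read kinetically over 30 min at 37–45 °C; IC50 from slopes.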

For the next experiment, the target named is Recombinant human MAO-B (Homo sapiens (Human), UniProt P27338). Description: Inhibition of human recombinant MAO-B. The settings on record: benzylamine 100 μM. The procedure, abridged: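 Recombinant human MAO-B used as enzyme source (0.06 mg/mL, stated concentration). Run as for the human SSAO/VAP-1 assay, except benzylamine substrate at 100 μM.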
Experiment [1] addresses human recombinant SSAO/VAP-1 (Homo sapiens (Human), UniProt Q16853). The experiment in a line: Inhibition of human recombinant SSAO/VAP-1 amine oxidase activity. The note with it: 30 min preincubation at 37° C., 600 μM benzylamine. The procedure, abridged:
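Purified SSAO/VAP-1 (residues 34-763, expressed in CHO Lec 8 cells; 0.25 μg/mL) preincubated 30 min at 37° C with compound in 0.1 M sodium phosphate pH 7.4. Reaction mix of 600 μM benzylamine, 120 μM Amplex Red and 1.5 U/mL HRP added; fluorescence (ex 565/em 590 nm) read every 2.5 min for 30 min; IC50 from kinetic slopes over 4-11 point curves.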

A further experiment has as its target Human LOXL2 (Homo sapiens (Human), UniProt Q9Y4K0). Description: LOXL2 inhibition, peroxidase-coupled Amplex Red amine oxidase assay. The note with it: 30 min preincubation at 37° C., putrescine substrate. In short, it runs like this:
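Enzyme in 1.2 M urea, 50 mM sodium borate pH 8.2 with 1 μM mofegiline and 0.5 mM pargyline, preincubated 30 min at 37° C with compound (11-point CRC). Putrescine at twice KM (10 mM for LOXL2) with Amplex Red/HRP; fluorescence (ex 565, em 590) read kinetically 30 min; IC50 from slopes.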

Counter-ions that a name gives are not always drawn.

Human LOXL2, sequence (Q9Y4K0 26-774): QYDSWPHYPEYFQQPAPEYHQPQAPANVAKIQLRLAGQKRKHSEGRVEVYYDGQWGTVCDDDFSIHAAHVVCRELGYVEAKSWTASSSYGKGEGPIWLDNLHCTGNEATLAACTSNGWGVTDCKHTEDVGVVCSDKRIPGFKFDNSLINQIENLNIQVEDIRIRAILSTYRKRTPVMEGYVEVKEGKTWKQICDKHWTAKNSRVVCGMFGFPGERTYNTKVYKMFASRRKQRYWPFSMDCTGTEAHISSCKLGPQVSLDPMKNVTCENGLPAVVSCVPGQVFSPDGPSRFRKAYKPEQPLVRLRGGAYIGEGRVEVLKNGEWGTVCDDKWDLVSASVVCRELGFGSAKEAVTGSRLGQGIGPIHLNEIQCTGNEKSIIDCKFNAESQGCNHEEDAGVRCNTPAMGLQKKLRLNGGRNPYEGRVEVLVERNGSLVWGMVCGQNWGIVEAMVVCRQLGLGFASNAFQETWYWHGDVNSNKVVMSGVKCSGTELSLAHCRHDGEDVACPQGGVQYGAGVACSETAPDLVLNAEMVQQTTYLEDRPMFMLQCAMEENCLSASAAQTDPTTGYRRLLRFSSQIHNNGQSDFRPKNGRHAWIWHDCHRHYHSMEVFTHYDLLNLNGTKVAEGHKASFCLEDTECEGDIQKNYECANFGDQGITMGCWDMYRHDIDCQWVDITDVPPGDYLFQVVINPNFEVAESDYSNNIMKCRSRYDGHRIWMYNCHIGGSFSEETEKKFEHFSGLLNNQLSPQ
Recombinant human MAO-B, sequence (P27338 whole entry): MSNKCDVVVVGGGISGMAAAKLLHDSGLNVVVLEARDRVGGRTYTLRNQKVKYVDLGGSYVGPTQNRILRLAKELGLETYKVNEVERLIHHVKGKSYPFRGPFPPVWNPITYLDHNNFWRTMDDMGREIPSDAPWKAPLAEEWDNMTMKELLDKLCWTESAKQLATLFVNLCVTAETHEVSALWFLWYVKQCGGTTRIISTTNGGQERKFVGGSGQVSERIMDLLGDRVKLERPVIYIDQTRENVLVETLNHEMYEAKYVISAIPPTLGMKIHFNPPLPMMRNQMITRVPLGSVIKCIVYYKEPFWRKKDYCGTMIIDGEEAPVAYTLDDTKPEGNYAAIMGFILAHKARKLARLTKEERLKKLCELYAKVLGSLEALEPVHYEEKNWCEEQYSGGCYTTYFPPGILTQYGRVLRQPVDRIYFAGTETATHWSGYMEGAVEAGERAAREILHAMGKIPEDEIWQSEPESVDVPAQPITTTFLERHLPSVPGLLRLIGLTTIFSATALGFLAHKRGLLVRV
human recombinant SSAO/VAP-1, sequence (Q16853 34-763): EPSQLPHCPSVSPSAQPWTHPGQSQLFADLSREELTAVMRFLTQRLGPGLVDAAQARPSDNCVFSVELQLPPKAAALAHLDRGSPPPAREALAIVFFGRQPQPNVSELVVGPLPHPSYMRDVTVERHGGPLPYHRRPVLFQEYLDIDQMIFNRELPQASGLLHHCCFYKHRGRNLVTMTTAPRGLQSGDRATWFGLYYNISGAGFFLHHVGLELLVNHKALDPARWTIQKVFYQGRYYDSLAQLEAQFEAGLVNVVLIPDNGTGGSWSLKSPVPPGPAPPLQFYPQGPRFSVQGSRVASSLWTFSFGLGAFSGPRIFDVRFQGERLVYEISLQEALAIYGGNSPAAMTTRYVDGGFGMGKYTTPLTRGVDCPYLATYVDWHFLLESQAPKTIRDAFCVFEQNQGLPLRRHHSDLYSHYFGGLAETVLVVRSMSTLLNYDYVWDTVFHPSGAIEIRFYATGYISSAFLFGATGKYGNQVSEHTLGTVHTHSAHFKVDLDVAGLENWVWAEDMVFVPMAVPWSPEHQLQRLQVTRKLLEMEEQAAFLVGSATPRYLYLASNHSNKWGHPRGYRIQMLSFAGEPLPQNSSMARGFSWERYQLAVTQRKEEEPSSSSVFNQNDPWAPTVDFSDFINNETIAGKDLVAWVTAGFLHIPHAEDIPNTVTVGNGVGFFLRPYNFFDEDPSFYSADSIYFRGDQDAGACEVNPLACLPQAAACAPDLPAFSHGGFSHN
Bovine LOX, sequence (P33072 170-418): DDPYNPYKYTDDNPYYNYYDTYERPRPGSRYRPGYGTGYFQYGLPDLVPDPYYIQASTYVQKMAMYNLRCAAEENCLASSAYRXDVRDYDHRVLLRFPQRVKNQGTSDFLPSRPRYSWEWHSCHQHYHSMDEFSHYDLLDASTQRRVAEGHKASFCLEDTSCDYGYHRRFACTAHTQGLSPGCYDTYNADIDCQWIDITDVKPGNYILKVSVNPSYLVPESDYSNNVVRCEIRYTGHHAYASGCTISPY

Broadly, the IC50 is the concentration at which inhibition is half-maximal. As for `CCOC(=O)c1cccc(-c2c(C)n(C/C(F)=C/CN)c3ccc(S(=O)(=O)N(C)C)cc23)c1` [Compound 33, ethyl (Z)-3-(1-(4-amino-2-fluorobut-2-en-1-yl)-5-(N,N-dimethylsulfamoyl)-2-methyl-1H-indol-3-yl)benzoate], the IC50 against Bovine LOX was greater than 0.3 µM; at Recombinant human MAO-B it was greater than 3 µM; in experiment [1] it was greater than 3 µM; on Human LOXL2, less than 0.3 µM.
`Cc1c(-c2cccc(S(=O)(=O)N(C)C)c2)c2cccnc2n1C/C(F)=C/CN` [Compound 4, (Z)-3-(1-(4-amino-2-fluorobut-2-en-1-yl)-2-methyl-1H-pyrrolo[2,3-b]pyridin-3-yl)-N,N-dimethylbenzenesulfonamide]: the IC50 is greater than 0.3 µM against Bovine LOX, greater than 3 µM on Recombinant human MAO-B, greater than 3 µM in experiment [1] and less than 0.3 µM at Human LOXL2.
As for `Cc1c(-c2cncc(S(=O)(=O)N(C)C)c2)c2cc(F)ccc2n1C/C(F)=C/CN` [Compound 71, (Z)-5-(1-(4-amino-2-fluorobut-2-en-1-yl)-5-fluoro-2-methyl-1H-indol-3-yl)-N,N-dimethylpyridine-3-sulfonamide], the IC50 was greater than 0.3 µM at Bovine LOX, greater than 3 µM on Recombinant human MAO-B, greater than 3 µM in experiment [1] and less than 0.3 µM on Human LOXL2.
Consider `Cc1c(-c2ccc(F)cc2)c2cc(S(N)(=O)=O)ccc2n1C/C(F)=C/CN` [Compound 95, (Z)-1-(4-amino-2-fluorobut-2-en-1-yl)-3-(4-fluorophenyl)-2-methyl-1H-indole-5-sulfonamide], for which the IC50 is greater than 0.3 µM against Bovine LOX, greater than 3 µM on Recombinant human MAO-B, greater than 3 µM in experiment [1] and less than 0.3 µM on Human LOXL2.
In the case of `Cc1c(-c2ccncc2)c2cc(S(C)(=O)=O)ccc2n1C/C(F)=C/CN` [Compound 88, (Z)-3-fluoro-4-(2-methyl-5-(methylsulfonyl)-3-(pyridin-4-yl)-1H-indol-1-yl)but-2-en-1-amine], the IC50 against Bovine LOX is greater than 0.3 µM; at Recombinant human MAO-B, greater than 3 µM; in experiment [1] it was greater than 3 µM; on Human LOXL2, less than 0.3 µM.
Take `Cc1c(-c2cccc(S(N)(=O)=O)c2)c2cc(C(=O)N(C)C)ccc2n1C/C(F)=C/CN` [Compound 54, (Z)-1-(4-amino-2-fluorobut-2-en-1-yl)-N,N,2-trimethyl-3-(3-sulfamoylphenyl)-1H-indole-5-carboxamide]: the half-maximal inhibitory concentration (IC50) at Bovine LOX is greater than 0.3 µM; on Recombinant human MAO-B, greater than 3 µM; in experiment [1] it was greater than 3 µM; against Human LOXL2, less than 0.3 µM.
Consider `Cc1c(-c2cccc(S(=O)(=O)N(C)C)c2)c2nc(F)ccc2n1C/C(F)=C/CN` [Compound 109, (Z)-3-(1-(4-amino-2-fluorobut-2-en-1-yl)-5-fluoro-2-methyl-1H-pyrrolo[3,2-b]pyridin-3-yl)-N,N-dimethylbenzenesulfonamide], for which the IC50 against Bovine LOX is greater than 0.3 µM; on Recombinant human MAO-B it was greater than 3 µM; in experiment [1], greater than 3 µM; at Human LOXL2, less than 0.3 µM.
Turning to `Cc1ccc(S(=O)(=O)N(C)C)cc1-c1c(C)n(C/C(F)=C/CN)c2c(F)cc(Cl)cc12` [Compound 82, (Z)-3-(1-(4-amino-2-fluorobut-2-en-1-yl)-5-chloro-7-fluoro-2-methyl-1H-indol-3-yl)-N,N,4-trimethylbenzenesulfonamide], the IC50 at Bovine LOX is greater than 0.3 µM; on Recombinant human MAO-B, greater than 3 µM; in experiment [1], greater than 3 µM; against Human LOXL2, less than 0.3 µM.
As for `CCOC(=O)c1ccc2c(c1)c(-c1ccc(F)cc1)c(C)n2C/C(F)=C/CN` [Compound 24, ethyl (Z)-1-(4-amino-2-fluorobut-2-en-1-yl)-3-(4-fluorophenyl)-2-methyl-1H-indole-5-carboxylate], the IC50 against Bovine LOX was greater than 0.3 µM; on Recombinant human MAO-B it was greater than 3 µM; in experiment [1], greater than 3 µM; against Human LOXL2, less than 0.3 µM.
On to `NC/C=C(\F)Cn1cc(-c2ccc(F)cc2)c2ccccc21` [Compound 1, (Z)-3-fluoro-4-(3-(4-fluorophenyl)-1H-indol-1-yl)but-2-en-1-amine], for which the concentration for half-maximal inhibition (IC50) against Bovine LOX is greater than 0.3 µM; on Recombinant human MAO-B it was greater than 3 µM; in experiment [1] it was greater than 3 µM; on Human LOXL2 it was less than 0.3 µM.
For the compound `Cc1c(-c2cccc(S(=O)(=O)N(C)C)n2)c2cc(Cl)ccc2n1C/C(F)=C/CN` [Compound 78, (Z)-6-(1-(4-amino-2-fluorobut-2-en-1-yl)-5-chloro-2-methyl-1H-indol-3-yl)-N,N-dimethylpyridine-2-sulfonamide], the IC50 is greater than 0.3 µM at Bovine LOX, greater than 3 µM at Recombinant human MAO-B, greater than 3 µM in experiment [1] and less than 0.3 µM on Human LOXL2.
With `CNS(=O)(=O)c1cccc(-c2c(C)n(C/C(F)=C/CN)c3ccc(C(=O)O)cc23)c1` [Compound 18, (Z)-1-(4-amino-2-fluorobut-2-en-l-yl)-2-methyl-3-(3-(N-methylsulfamoyl)phenyl)-1H-indole-5-carboxylic acid, Hydrochloride], the concentration for half-maximal inhibition (IC50) on Bovine LOX is greater than 0.3 µM; on Recombinant human MAO-B, greater than 3 µM; in experiment [1], greater than 3 µM; against Human LOXL2 it was less than 0.3 µM.
On to `Cc1c(-c2cccc(S(=O)(=O)N(C)C)c2)c2cc(C(=O)NC(C)C)ccc2n1C/C(F)=C/CN` [Compound 35, (Z)-1-(4-amino-2-fluorobut-2-en-1-yl)-3-(3-(N,N-dimethylsulfamoyl)phenyl)-N-isopropyl-2-methyl-1H-indole-5-carboxamide], for which the IC50 is greater than 0.3 µM on Bovine LOX, greater than 3 µM on Recombinant human MAO-B, greater than 3 µM in experiment [1] and less than 0.3 µM against Human LOXL2.
`Cc1c(-c2cccnc2)c2cc(Cl)ccc2n1C/C(F)=C/CN` [Compound 77, (Z)-4-(5-chloro-2-methyl-3-(pyridin-3-yl)-1H-indol-1-yl)-3-fluorobut-2-en-1-amine]: the IC50 was greater than 0.3 µM at Bovine LOX, greater than 3 µM at Recombinant human MAO-B, greater than 3 µM in experiment [1] and less than 0.3 µM against Human LOXL2.
In the case of `Cc1c(-c2cccc(S(=O)(=O)N(C)C)c2)c2cc(Cl)ccc2n1C/C(F)=C/CN` [Compound 62, (Z)-3-(1-(4-amino-2-fluorobut-2-en-1-yl)-5-chloro-2-methyl-1H-indol-3-yl)-N,N-dimethylbenzenesulfonamide], the IC50 at Bovine LOX is greater than 0.3 µM; on Recombinant human MAO-B it was greater than 3 µM; in experiment [1] it was greater than 3 µM; against Human LOXL2 it was less than 0.3 µM.
Regarding `CCOC(=O)c1cc2c(-c3cccc(S(=O)(=O)N(C)C)c3)c(C)n(C/C(F)=C/CN)c2cc1F` [Compound 22, (Z)-ethyl 1-(4-amino-2-fluorobut-2-en-1-yl)-3-(3-(N,N-dimethylsulfamoyl)phenyl)-6-fluoro-2-methyl-1H-indole-5-carboxylate], the IC50 was greater than 0.3 µM at Bovine LOX, greater than 3 µM at Recombinant human MAO-B, greater than 3 µM in experiment [1] and less than 0.3 µM against Human LOXL2.
For `Cc1c(-c2cccc(S(=O)(=O)N(C)C)c2)c2nc(C(C)(F)F)ccc2n1C/C(F)=C/CN` [Compound 111, (Z)-3-(1-(4-amino-2-fluorobut-2-en-1-yl)-5-(1,1-difluoroethyl)-2-methyl-1H-pyrrolo[3,2-b]pyridin-3-yl)-N,N-dimethylbenzenesulfonamide Dihydrochloride], the half-inhibitory concentration (IC50) at Bovine LOX is greater than 0.3 µM; on Recombinant human MAO-B, greater than 3 µM; in experiment [1], greater than 3 µM; against Human LOXL2 it was less than 0.3 µM.
Regarding `Cc1c(-c2cncc(S(=O)(=O)N(C)C)c2)c2cccc(Cl)c2n1C/C(F)=C/CN` [Compound 74, (Z)-5-(1-(4-amino-2-fluorobut-2-en-1-yl)-7-chloro-2-methyl-1H-indol-3-yl)-N,N-dimethylpyridine-3-sulfonamide], the half-maximal inhibitory concentration (IC50) on Bovine LOX is greater than 0.3 µM; at Recombinant human MAO-B it was greater than 3 µM; in experiment [1], greater than 3 µM; against Human LOXL2, less than 0.3 µM.
`CCOC(=O)c1ccc2c(c1)c(-c1cccc(C(C)(C)C)c1)c(C)n2C/C(F)=C/CN` [Compound 30, ethyl (Z)-1-(4-amino-2-fluorobut-2-en-1-yl)-3-(3-(tert-butyl)phenyl)-2-methyl-1H-indole-5-carboxylate]: the half-inhibitory concentration (IC50) on Bovine LOX was greater than 0.3 µM; on Recombinant human MAO-B it was greater than 3 µM; in experiment [1] it was greater than 3 µM; against Human LOXL2, less than 0.3 µM.
Regarding `Cc1ccc(S(=O)(=O)N(C)C)cc1-c1c(C)n(C/C(F)=C/CN)c2ccc(C(=O)O)cc12` [Compound 20, (Z)-1-(4-amino-2-fluorobut-2-en-1-yl)-3-(5-(N,N-dimethylsulfamoyl)-2-methylphenyl)-2-methyl-1H-indole-5-carboxylic acid], the 50% inhibitory concentration (IC50) at Bovine LOX is greater than 0.3 µM; on Recombinant human MAO-B, greater than 3 µM; in experiment [1], greater than 3 µM; against Human LOXL2, less than 0.3 µM.
As to `Cc1c(-c2ccc(F)cc2)c2cc(C(=O)O)ccc2n1C/C(F)=C/CN` [Compound 23, (Z)-1-(4-amino-2-fluorobut-2-en-1-yl)-3-(4-fluorophenyl)-2-methyl-1H-indole-5-carboxylic acid], the IC50 at Bovine LOX is greater than 0.3 µM; at Recombinant human MAO-B, greater than 3 µM; in experiment [1], greater than 3 µM; on Human LOXL2, less than 0.3 µM.
